Test results taken from US10201556B2, “Combination for use in treating diseases or conditions associated with melanoma, or treating diseases or conditions associated with activated B-raf pathway” (InteRNA Technologies B.V., priority 2012, dated 2019).
Entries after “also recorded” stand apart in the source; their conditions may differ.

Experiments:
A2058 melanoma cell line = experiment: Anti-proliferative effect of miRNA mimics, MTS assay; assay type: cell-based; settings: 10 nM mimic, 72 hours after transfection
Experimental: (§1) The anti-proliferative effect of miRNA's in melanoma cell lines was determined with mature miRNA mimics from Ambion. For each cell line optimal growth and transfection conditions were determined prior to the experiment. Cells were plated in a 96-well plate at 3000 cells per well (100 uL) and were grown at 37 C, 5% CO2. Transfection mix (20 uL per well) was made for each miRNA mimic concentration with 0.3 uL (M249, M249-R4) or 0.5 uL (A375Hu, A375Hu-R1, A2058, RPMI-7951) X-TremeGene (Roche) per well (according to manufacturer's instructions) in Optimem (Invitrogen). Cells were transfected 24 hours after plating in triplicate. Medium was replaced 48 hours after transfection with fresh medium.

M249 melanoma cell line = experiment: as above; assay type: cell-based; settings: 5 nM mimic, 72 hours after transfection
Experimental: as §1

[1] = test system: M249-AR (M249-R4) melanoma cell line; experiment: as above; assay type: cell-based; settings: 30 nM mimic, 72 hours after transfection
Experimental: as §1

[2] = test system: RPMI-7951 melanoma cell line; experiment: as above; assay type: cell-based; settings: 10 nM mimic, 72 hours after transfection
Experimental: as §1

[3] = test system: A375Hu melanoma cell line; experiment: as above; assay type: cell-based, human; settings: 10 nM mimic, 72 hours after transfection
Experimental: as §1

[4] = test system: A375Hu-R1 melanoma cell line; experiment: as above; assay type: cell-based, human; settings: 10 nM mimic, 72 hours after transfection
Experimental: as §1

CDK6 = experiment: Western immunoblotting of CDK6 protein levels; assay type: cell-based, human; settings: A375Hu cells, 72 hrs post transfection, Western blot
Experimental: (§2) A375Hu cells were seeded in 6-well plates and transfected with different concentrations (10, 50 and 100 nM) of synthetic hsa-miR-129-5p or BRAF siRNA (100 nM) using RNAiMAX (7.5 μl/well). As control a scrambled miRNA and a non-targeting siRNA pool were included. Proteins were harvested 72 hrs post transfection using RIPA buffer supplemented with HALT™ Phosphatase Inhibitor (Thermo Scientific) and Protease Inhibitor Cocktail (Sigma). Fifteen μg protein was loaded on 7.5% TGX acrylamide gels (Bio-Rad) and subsequently transferred to PVDF membranes. The membranes were blocked in 5% milk in TBS-T and incubated O/N at 4° C. with primary antibodies to bRAF, phosphoERK1/2, CDK6, and tubulin (Santa Cruz). After incubation with secondary goat-anti-mouse antibodies (Santa Cruz), membranes were developed using ECL (Pierce).

phospho-ERK1/2 = experiment: Western immunoblotting of phospho-ERK1/2 protein levels; assay type: cell-based, human; settings: A375Hu cells, 72 hrs, Western blot
Experimental: as §2
as §2, with “(1, 10” for “(10, 50”, “hsa-miR-3157” for “hsa-miR-129-5p”, “bRAF, total ERK1/2,” for “bRAF,”, “CDK4, BCL2” for “CDK6,”
as §2, with “concentrations” for “concentrations (10, 50 and 100 nM)”, “vemurafenib (PLX-4032, 0.01, 0.1, 1 uM).” for “synthetic hsa-miR-129-5p or BRAF siRNA (100 nM) using RNAiMAX (7.5 μl/well). As control a scrambled miRNA and a non-targeting siRNA pool were included.”, “bRAF, total ERK1/2,” for “bRAF,”, “CDK4, BCL2” for “CDK6,”
A2058 cells were seeded in 6-well plates and transfected with different concentrations (1, 10 and 100 nM) of synthetic hsa-miR-3157-5p or BRAF siRNA using X-TremeGene (Roche, 15 μl/well). As control a scrambled miRNA was included. Proteins were harvested 72 hrs post transfection using RIPA buffer supplemented with HALT™ Phosphatase Inhibitor (Thermo Scientific) and Protease Inhibitor Cocktail (Sigma). Fifteen μg protein was loaded on 10% TGX acrylamide gels (Bio-Rad) and subsequently transferred to PVDF membranes. The membranes were blocked in 5% milk in TBS-T and incubated O/N at 4° C. with primary antibodies to bRAF, total ERK1/2, phosphoERK1/2, BCL2, CDK4 and tubulin (Santa Cruz). After incubation with secondary goat-anti-mouse antibodies (Santa Cruz), membranes were developed using ECL (Pierce).
Transfection was performed as described in Example 4 in 6-well format. Proteins were isolated using RIPA buffer (50 mM Tris pH 8.0, 150 mM NaCL, 1% NP-40, 0.5% Sodium deoxycholate, 0.1% SDS), supplemented with Protease Inhibitor Cocktail (Sigma) and Halt™ Phosphatase Inhibitor Cocktail (Pierce/Thermo Scientific). […]

Substance	A2058 % Viability 10 nM (A2058 melanoma cell line) [%]	M249 % Viability 5 nM (M249 melanoma cell line) [%]	M249-AR % Viability 30 nM [1] [%]	RPMI-7951 % Viability 10 nM [2] [%]	A375Hu % Viability 10 nM [3] [%]	A375Hu-R1 % Viability 10 nM [4] [%]	CDK6 protein levels (CDK6)	phospho-ERK1/2 protein levels (phospho-ERK1/2)
hsa-miR-7-5p: mature miRNA mimic, SEQ ID NO 1 UGGAAGACUAGUGAUUUUGUUGU (listed as RNA, chemistry not given here)	51	48	67	65	58	68		
hsa-miR-10b-3p: mature miRNA mimic, SEQ ID NO 2 ACAGAUUCGAUUCUAGGGGAAU (listed as RNA, chemistry not given here)	42	82	86	51	71	59		
hsa-miR-16-5p: mature miRNA mimic, SEQ ID NO 7 UAGCAGCACGUAAAUAUUGGCG (listed as RNA, chemistry not given here)	39	27	68	68	62	57		
hsa-miR-96-5p: mature miRNA mimic, SEQ ID NO 3 UUUGGCACUAGCACAUUUUUGCU (listed as RNA, chemistry not given here)	33	64	82	53	73	69		
hsa-miR-129-5p: mature miRNA mimic, SEQ ID NO 4 CUUUUUGCGGUCUGGGCUUGC (listed as RNA, chemistry not given here)	44	47	64	82	59	48	significant reduction in CDK6 protein abundance; also recorded: down-regulates	does not result in pERK down-regulation
hsa-miR-182-3p: mature miRNA mimic, SEQ ID NO 10 UGGUUCUAGACUUGCCAACUA (listed as RNA, chemistry not given here)	77	71	83	68		59		
hsa-miR-200c-5p: mature miRNA mimic, SEQ ID NO 9 CGUCUUACCCAGCAGUGUUUGG (listed as RNA, chemistry not given here)	37	44	58	58	43	66		
hsa-miR-497-5p: mature miRNA mimic, SEQ ID NO 8 CAGCAGCACACUGUGGUUUGU (listed as RNA, chemistry not given here)	53	29	68	68	45	57		
hsa-miR-518b: mature miRNA mimic, SEQ ID NO 5 CAAAGCGCUCCCCUUUAGAGGU (listed as RNA, chemistry not given here)	44	50	53	53	66			
